Source: patent US20160375073A1, “COMPOSITION FOR TREATMENT OR PREVENTION OF OBESITY, CONTAINING WATER EXTRACTS OF FOMITELLA FRAXINEA” (POSTECH ACADEMY-INDUSTRY FOUNDATION, priority 2011, published 2016)

Tested on: lipid absorption in the digestive tract
Assay: Amount of lipid absorption from the digestive tract into blood (14C-triolein, plasma radioactivity)
Type: in vivo, mouse
Details: male Balb/c mice, oral 14C-triolein, plasma 6 hours after administration, relative to untreated control = 1; FIG. 3
Description: Triolein (Amersham, 100 μCi/mL) radiolabeled with ^14C was mixed with 1% (w/v) sodium carboxylmethyl cellulose (CMC-Na) and 1% (v/v) Tween 80, and then 0.1 mL of the mixture was forcibly administered into each mouse through an oral zonde so that 1 μCi could be delivered to each mouse. Here, the mouse in the control group (an 8-week old male Balb/c with body weight of 25 g) was treated with 400 μg of Orlistat (20 mg/kg), which is used as an obesity treatment, and the mouse in the experimental group (an 8-week old male Balb/c with body weight of 25 g) was treated with 0.5 mL of the water extract (50 mg/mL) of Fomitella […] prepared in the Example after concentrating it into 0.1 mL. Six hours after the administration, blood samples were collected from the mice, and plasma was obtained by centrifuging the blood at […] at the rate of 14000 rpm, and the radioactive dose was measured by a liquid scintillator (Beta counter, Beckman LS1801). The control group was not treated with anything. The amount of lipid absorption was determined as a relative value by dividing the radioactive dose of each group into the radioactive dose of the control group, in which the radioactive dose of the control group was set at '1'. […] In particular, the result on the control group in FIG. 3 was obtained from the blood sample of a mouse not treated with any lipid absorption inhibitor.

How did the “inhibitory effect upon lipid absorption” value turn out when `CCCCCCCCCCC[C@@H](C[C@@H]1OC(=O)[C@H]1CCCCCC)OC(=O)[C@H](CC(C)C)NC=O` [Orlistat, orlistat] was run?
The value was “significant inhibitory effect upon lipid absorption”.
